These results are taken from US20070026079A1, “Intranasal administration of modulators of hypothalamic ATP-sensitive potassium channels” (priority 2005, published 2007).

For experiment [1], the system named is KATP channels within the medial hypothalamus. Put plainly: Intrahypothalamic (IH) infusion of diazoxide or insulin with pancreatic-insulin clamp in rats. The format is in vivo, Sprague-Dawley rats. The note with it: for rate of glucose infusion required to prevent hypoglycemia: IH infusion during pancreatic clamp, vs vehicle; for blood glucose levels / glucose production (GP): IH infusion; for blood glucose levels: bilateral, medial hypothalamus, fifteen-fold lower dose than ICV; for glucose production (GP): basal circulating insulin. An excerpt: Animal preparation for the in vivo experiments. Rats. Eighty-nine 10-week-old male Sprague-Dawley rats (Charles River Breeding Laboratories, Wilmington, Mass.) were studied. Rats were housed in individual cages and subjected to a standard light-dark cycle. Three weeks prior to the in vivo studies, chronic catheters were implanted in the third cerebral ventricle (Obici et al., 2003; Liu et al., 1998) or intrahypothalamically (Morton et al., 2003) (IH) by stereotaxic surgery. One week before the pancreatic-insulin clamp protocols, rats received additional catheters in the right internal jugular and left carotid artery (FIG. 5) (Obici et al., 2003; Liu et al., 1998). In vivo studies. For the studies in rats, the metabolic experiments were performed ˜3 weeks after stereotaxic surgery following complete recovery from the operation (FIG. 5). All solutions were diluted with artificial cerebral spinal fluid (aCSF). […] Pancreatic-insulin clamp studies were performed as previously described (Liu et al., 1998). Euglycemic-hyperinsulinemic clamps in conscious, unrestrained, catheterized […] were performed for 90 min as previously described (Obici et al., 2003; Liu et al., 1998).

The subject of experiment [2] is hypothalamic KATP channels. Put plainly: ICV infusion of insulin, KATP channel blocker (glibenclamide) or both with pancreatic-insulin clamp (1 mU/kg.min) in rats. The note with it: for Glucose: plasma; for rate of glucose infusion / glucose requirements: near basal circulating insulin levels. In kind it is in vivo, Sprague-Dawley rats. An excerpt: (§1) Animal preparation for the in vivo experiments. Rats. Eighty-nine 10-week-old male Sprague-Dawley rats (Charles River Breeding Laboratories, Wilmington, Mass.) were studied. Rats were housed in individual cages and subjected to a standard light-dark cycle. Three weeks prior to the in vivo studies, chronic catheters were implanted in the third cerebral ventricle (Obici et al., 2003; Liu et al., 1998) or intrahypothalamically (Morton et al., 2003) (IH) by stereotaxic surgery.
(§2) In vivo studies. For the studies in rats, the metabolic experiments were performed ˜3 weeks after stereotaxic surgery following complete recovery from the operation (FIG. 5). All solutions were diluted with artificial cerebral spinal fluid (aCSF). […] Euglycemic-hyperinsulinemic clamps in conscious, unrestrained, catheterized mice were performed for 90 min as previously described (Obici et al., 2003; Liu et al., 1998).
(§3) Hepatic alucose fluxes. Rate of hepatic glucose fluxes was determined as described. Barzilai et al., 1997).

In experiment [3] the target is T1, hypothalamic insulin receptors (Rattus norvegicus, UniProt P15127).
T1 construct: Paired groups of SHAM and HV rats received an ICV infusion of either insulin or vehicle; from tissue; host or cells: brain/hypothalamus of living Sprague-Dawley rats (sham, hepatic vagotomy or vagal deafferentation)
T1 sequence (P15127 27-759 limits assumed): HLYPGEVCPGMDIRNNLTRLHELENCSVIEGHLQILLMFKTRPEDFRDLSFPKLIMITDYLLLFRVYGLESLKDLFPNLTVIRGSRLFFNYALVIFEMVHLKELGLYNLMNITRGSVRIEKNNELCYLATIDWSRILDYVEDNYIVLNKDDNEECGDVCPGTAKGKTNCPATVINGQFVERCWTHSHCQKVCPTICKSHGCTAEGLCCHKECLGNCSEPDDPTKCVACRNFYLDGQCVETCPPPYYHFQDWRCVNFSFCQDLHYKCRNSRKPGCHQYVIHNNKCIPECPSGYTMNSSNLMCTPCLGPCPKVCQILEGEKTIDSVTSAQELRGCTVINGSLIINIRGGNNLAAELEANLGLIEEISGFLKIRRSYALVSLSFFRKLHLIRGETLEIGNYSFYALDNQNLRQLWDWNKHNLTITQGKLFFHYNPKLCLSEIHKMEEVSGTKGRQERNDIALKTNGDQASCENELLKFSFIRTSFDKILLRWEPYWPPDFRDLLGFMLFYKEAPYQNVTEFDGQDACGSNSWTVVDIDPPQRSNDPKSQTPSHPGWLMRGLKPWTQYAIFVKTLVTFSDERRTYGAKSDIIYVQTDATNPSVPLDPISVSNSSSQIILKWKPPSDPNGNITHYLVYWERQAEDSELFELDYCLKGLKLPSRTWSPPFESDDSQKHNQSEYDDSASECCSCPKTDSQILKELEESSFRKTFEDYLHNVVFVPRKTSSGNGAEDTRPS
T1 sequence (P15127 764-1383 partner limits assumed): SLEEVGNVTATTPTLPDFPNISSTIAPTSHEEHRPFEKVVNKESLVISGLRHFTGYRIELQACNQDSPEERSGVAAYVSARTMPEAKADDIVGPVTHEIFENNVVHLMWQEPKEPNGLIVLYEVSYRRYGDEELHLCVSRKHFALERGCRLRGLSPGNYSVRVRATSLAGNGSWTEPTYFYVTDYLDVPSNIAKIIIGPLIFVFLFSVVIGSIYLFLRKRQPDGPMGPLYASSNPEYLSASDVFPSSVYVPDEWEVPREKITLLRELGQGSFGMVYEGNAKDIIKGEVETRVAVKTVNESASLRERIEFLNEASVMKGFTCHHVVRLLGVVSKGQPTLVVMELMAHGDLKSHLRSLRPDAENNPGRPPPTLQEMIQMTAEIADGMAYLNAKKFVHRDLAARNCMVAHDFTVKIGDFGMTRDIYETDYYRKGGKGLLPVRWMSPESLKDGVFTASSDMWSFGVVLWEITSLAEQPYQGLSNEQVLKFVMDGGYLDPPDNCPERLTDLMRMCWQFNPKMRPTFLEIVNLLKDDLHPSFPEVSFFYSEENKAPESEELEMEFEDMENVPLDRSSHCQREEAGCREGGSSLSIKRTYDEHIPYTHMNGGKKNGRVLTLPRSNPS
Put plainly: ICV insulin with pancreatic-insulin clamp in rats with hepatic vagotomy (HV), sham operation or vagal deafferentation. The format is in vivo, Sprague-Dawley rats. The following applies: for Body wt.: ICV infusion; for 14C-PEP: liver.
Description: as §1, §2
(§4) Selective hepatic branch vagotomy. One week before the clamp procedure a subgroup of rats underwent selective hepatic vagotomy (HV) or sham operation (SHAM). Anatomical nerve transactions was verified in each rat at sacrifice by microscopic observation of the absence of vagal nerve fibers in between the two silk sutures that had been placed along the trunk at the time of transection (la Fleur et al., 2003).
Selective vagal deafferentation. Nerve transection was performed as previously described, according to the methods of Norgren and Smith (Norgren & Smith, 1998).
as §3

Experiment [4] deals with hepatic glucose production. Put plainly: Pancreatic-hyperinsulinemic clamp (systemic insulin 3 mU/kg.min) in SHAM and HV rats. In kind it is in vivo, Sprague-Dawley rats. The following applies: systemic hyperinsulinemia ~3-fold over basal. How it is done:
Panel A is a schematic representation of the pancreatic-hyperinsulinemic clamp procedure. At t=120 an infusion of labeled glucose was initiated and maintained for the remaining 4 hours of the study and a pancreatic hyperinsulinemic clamp was initiated at t=240 min and lasted for 2 hours.
(§5) In vivo studies. For the studies in rats, the metabolic experiments were performed ˜3 weeks after stereotaxic surgery following complete recovery from the operation (FIG. 5). All solutions were diluted with artificial cerebral spinal fluid (aCSF). […] Pancreatic-insulin clamp studies were performed as previously described (Liu et al., 1998). Euglycemic-hyperinsulinemic clamps in conscious, unrestrained, catheterized mice were performed for 90 min as previously described (Obici et al., 2003; Liu et al., 1998).
as §4

The subject of experiment [5] is hypothalamic KATP channels. Put plainly: Central insulin or diazoxide in rats on a high fat diet for three days (hepatic insulin resistance). The note with it: basal plasma insulin (20 μU/ml). In kind it is in vivo. The method, then: Additional-experiments were also performed in rats maintained on a high fat diet regimen for three days.
The test system of another experiment is G6 Pase. Put plainly: Hepatic expression of G6 Pase by real-time PCR after central infusions. The format is in vivo, Sprague-Dawley rats. An excerpt:
(§6) Gene expression. Gluconeogenic enzymes. Quantitative analysis of gene expression was done using RT-PCR. Total RNA was isolated with Trizol (Invitrogen) and single-strand cDNA was synthesized with a kit provided by Invitrogen. Real-time PCR reactions and the primers for G6 Pase and PEPCK were done as described (Pocai et al., in press). The copy number of each transcript was derived from a standard curve of cloned target templates. Expression of each transcript was normalized to copy number for 18s ribosomal protein.

The test system of the next experiment is PEPCK. Put plainly: Hepatic expression of PEPCK by real-time PCR after central infusions. In kind it is in vivo, Sprague-Dawley rats.
Description: as §6

The next experiment has as its system central KATP channels. Put plainly: ICV infusion of diazoxide with pancreatic-insulin clamp (1 mU/kg.min) in conscious rats. In kind it is in vivo, Sprague-Dawley rats.
Description: as §1, with “surgery. One week before the pancreatic-insulin clamp protocols, rats received additional catheters in the right internal jugular and left carotid artery (FIG. 5) (Obici et al., 2003; Liu et al., 1998).” for “surgery.”
as §5, §3

The mark [6] stands for this setting: Basal, before the clamp, ICV infusion.
The mark [7] stands for this setting: ICV infusion, liver harvested at completion of infusions.

For the compound insulin, the “rate of glucose infusion required to prevent hypoglycemia” value in experiment [1] was “significant increases”. Moreover, the values for the blood glucose levels entry in experiment [1] and in experiment [2] (ICV (third cerebral ventricle)) were “reproduced the potent effects of ICV insulin or diazoxide” and “lowers blood glucose levels”, respectively. The “glucose production (GP)” value in experiment [1] is recorded as “reproduced the potent effects of ICV insulin or diazoxide”. Further, the Glucose is on record as 7.8 ± 0.3 mM in experiment [2] (setting [6]); 7.9 ± 0.5 mM in experiment [3] (HV, Basal, plasma); 8.0 ± 0.6 mM in experiment [3] (HV, Clamp steady state, plasma); 7.9 ± 0.3 mM in experiment [3] (Sham, Basal, plasma). For the same compound, the “flux through G6 Pase” value in experiment [2] (ICV) is “markedly decreased the flux through G6 Pase”; in experiment [3] (SHAM, ICV) it was “markedly decreased the flux through G6 Pase”. Also, the gluconeogenesis entry in experiment [2] (ICV) was “marked inhibition of gluconeogenesis”; in experiment [3] (SHAM, ICV), “marked inhibition of gluconeogenesis”. Further, the rate of glycogenolysis entry in experiment [2] (ICV) is given as “not significantly decreased”. Moreover, the “decrease in glucose production (GP)” value is listed as 52±8% in experiment [2] (ICV, basal and equal insulin levels); “not in HV rats” in experiment [3] (HV, ICV, basal and equal insulin levels). Further, the “rate of glucose infusion / glucose requirements” value in experiment [2] (ICV) is reported as “glucose infusion was required to prevent hypoglycemia”. Further, the Body wt. stood at 295 ± 4 g in experiment [3] (HV, Basal) and 310 ± 5 g in experiment [3] (Sham, Basal). Further, the FFA in experiment [3] (HV, Basal, plasma) is reported as 0.5 ± 0.2 mM; in experiment [3] (HV, Clamp steady state, plasma), 0.5 ± 0.3 mM; in experiment [3] (Sham, Basal, plasma), 0.5 ± 0.3 mM; in experiment [3] (Sham, Clamp steady state, plasma), 0.4 ± 0.1 mM. For the same compound, the Insulin in experiment [3] (HV, Clamp steady state, plasma) is 0.9 ± 0.3 ng/mL. In experiment [3] (HV, ICV), the hepatic glucose fluxes entry was “failed to affect hepatic glucose fluxes”. Besides, the “3H-Glucose Plasma SA” value is given as 52.4 ± 3.5 dpm/nmol in experiment [3] (HV, Table 8) and 43.1 ± 1.9 dpm/nmol in experiment [3] (SHAM, Table 8). For the same compound, the “% Indirect” value in experiment [3] (HV, indirect pathway (gluconeogenesis), Table 8) was 34.4 ± 9.7%. For the same compound, the 14C-PEP was found to be 5.5 ± 1.4 dpm/nmol in experiment [3] (HV, Table 8) and 10.9 ± 0.6 dpm/nmol in experiment [3] (SHAM, Table 8). Also, the “rate of glucose uptake” value in experiment [3] (ICV, either SHAM or HV rats) was “not significantly affected”. Also, the “glucose infusion required to prevent hypoglycemia” value in experiment [3] (SHAM, ICV, ~basal circulating insulin) is reported as “glucose infusion was required to prevent hypoglycemia”. Besides, in experiment [3] (SHAM, Table 8), the “3H-UDP-glucose Liver SA” value came out at 5.5 ± 0.5 dpm/nmol. For the same compound, in experiment [3] (SHAM, direct pathway, Table 8), the “Direct (%)” value amounted to 12.1 ± 0.71%. In addition, in experiment [3] (rats with selective vagal deafferentation, ICV), the “ability to lower blood glucose levels and to suppress GP” value is given as “did not alter”. Also, the “suppression of GP” value amounted to 38±11% in experiment [4] (HV) and 80±8% in experiment [4] (SHAM). Further, in experiment [5] (central administration), the “inhibition of glucose production” value is recorded as “failed to significantly inhibit glucose production”. Besides, the “liver G6 Pase mRNA levels” value in the experiment on G6 Pase (setting [7]) is reported as “marked KATP channels dependent decreases”; in the experiment on G6 Pase (SHAM, ICV), “marked decrease”. Also, the “liver PEPCK mRNA levels” value in the experiment on PEPCK (setting [7]) was “marked KATP channels dependent decreases”; in the experiment on PEPCK (SHAM, ICV), “marked decrease”.

With `COc1ccc(Cl)cc1C(=O)NCCc1ccc(S(=O)(=O)NC(=O)NC2CCCCC2)cc1` [glibenclamide, 5-Chloro-N-[2-[4-(3-cyclohexylureidosulfonyl)phenyl]ethyl]-2-methoxybenzamide, reference compound], the Glucose in experiment [2] (setting [6]) is recorded as 8.2 ± 0.5 mM; in experiment [2] (Clamp steady state, ICV infusion), 8.2 ± 0.9 mM. Further, in experiment [2] (ICV), the “rate of glucose infusion / glucose requirements” value is reported as “did not modify the rate of glucose infusion”. Moreover, the “glucose production (GP)” value in experiment [2] (ICV, pancreatic clamp) is “did not per se affect GP”. Moreover, in experiment [2] (indirect pathway (gluconeogenesis), ICV infusion, Table 7), the “% Indirect” value came to 32.4 ± 3.0%.

`CC1=NS(=O)(=O)c2cc(Cl)ccc2N1` [diazoxide] came in with a Glucose in the experiment on central KATP channels (Basal, before the clamp, plasma, ICV infusion) of 7.9 ± 0.4 mM. Further, in the experiment with central KATP channels (ICV), the gluconeogenesis result is reported as “marked inhibition of gluconeogenesis”, the glucose cycling entry is listed as “significantly reduced glucose cycling” and the rate of glycogenolysis entry is “not significantly decreased”. Besides, the blood glucose levels entry in the experiment on central KATP channels (ICV (third cerebral ventricle), conscious rats) is reported as “lowered blood glucose levels”. Besides, the “glucose infusion required to prevent hypoglycemia” value in the experiment with central KATP channels (ICV, basal circulating insulin levels) is “glucose infusion was required to prevent hypoglycemia”. Besides, the “decrease in glucose production (GP)” value with central KATP channels (ICV, basal insulin levels (~20 μU/ml)) is 45±4%. The “flux through G6 Pase” value in the experiment on central KATP channels (ICV, in vivo) is reported as “decreased the flux through G6 Pase”. The “rate of glucose uptake” value in the experiment with central KATP channels (ICV, pancreatic-insulin clamp) is reported as “not significantly affected”. Moreover, in the experiment with central KATP channels (indirect pathway (gluconeogenesis), ICV infusion, Table 6), the “% Indirect” value was 9.7 ± 4.1 %. Besides, in experiment [1], the “rate of glucose infusion required to prevent hypoglycemia” value is “significant increases”, the blood glucose levels result is on record as “lowered blood glucose levels” and the “glucose production (GP)” value was “marked suppression of GP”. Moreover, the “inhibition of glucose production” value in experiment [5] (ICV or intrahypothalamic infusion) is listed as ~45%. Also, in the experiment on G6 Pase (setting [7]), the “liver G6 Pase mRNA levels” value was “markedly decreased”. For the same compound, the “liver PEPCK mRNA levels” value with PEPCK (setting [7]) is listed as “markedly decreased”.
